According to patent publication US11952365B2, “Anti-viral compounds” (Aligos Therapeutics, Inc., priority 2020, dated 2024):
Where two headings read alike, the source gives them in different places.

What was measured:
[1] = tested on: human beta-coronavirus OC43; experiment: microbe, parasite or virus in culture; type: cell-based; settings: Betacoronavirus 1, OC43, HeLa, 144 h, OC43 in HeLa cells, 6 days at 33° C., class symbols; read-out: EC50
[2] = target: HRV3C (Human rhinovirus 14, UniProt P03303); experiment: HRV3C protease assay (duplex, SAMDI-MS); type: biochemical, HRV
Procedure, shortened: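 HRV3C was preincubated 30 min with compound alongside 3CLpro at ambient temperature, then two biotinylated peptide substrates were added for 30 min. Quenching used 0.5% formic acid (final). Cleaved product was captured on neutravidin SAMDI arrays and quantified by MALDI-TOF as product/internal-standard AUC ratio; IC50 from four-parameter fit.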

[3] = Cytotoxicity plates without OC43 virus (cell-titer-glo); type: cell-based, human; settings: human; HeLa cells without OC43 virus, class symbols
Procedure, shortened: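 Run as a virus-free counterpart of the OC43 cytopathic-effect assay. Attached HeLa cells received compound dilutions in EMEM with 2% FBS and were kept 6 days at 33 °C. Cell viability was then measured by CellTiter-Glo luminescence.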

[4] = tested on: SARS-CoV-2-GHB-03021/2020; experiment: microbe, parasite or virus in culture; type: cell-based; settings: Severe acute respiratory syndrome coronavirus 2, Vero C1008, 96 h; read-out: VeroE6 + CP (EC50)
[5] = in vitro; settings: African green monkey, VeroE6 + CP (CC50), Vero E6-eGFP cells with CP-100356, absence of virus, MTS
[6] = in vitro; settings: human
[7] = target: 3CLpro (Severe acute respiratory syndrome coronavirus 2, UniProt P0DTD1); experiment: SARS-CoV-2 3CLpro protease assay (duplex, SAMDI-MS); type: biochemical; parameters: For the duplex assay, 3CLpro and HRV3C was added; settings: 3CLpro, 30 mins preincubation, class symbols; read-out: SARS-Cov-2 IC50
[8] = target: T1, human cathepsin L (Homo sapiens, UniProt P07711); experiment: cathepsin L assay; type: biochemical; settings: 10 pM human cathepsin L, Z-FR-AMC 2 μM, class symbols
T1 construct: purchased R&D Systems
Procedure, shortened: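 Reactions began by adding 2 μM (final) Z-FR-AMC substrate to 10 pM human cathepsin L that had been preincubated 30 min with inhibitor. Kinetic AMC fluorescence at 355/460 nm over 30 min at 2-min intervals; four-parameter fitting gave IC50 values.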

[9] = tested on: SARS-CoV-2-GHB-03021/2020; experiment: SARS-CoV-2 Infection Model in Huh7 Cells; type: cell-based; settings: Severe acute respiratory syndrome coronavirus 2, Huh-7, 96 h, SARS-CoV-2, day 4 p.i., MTS
[10] = HRV IC50, HRV3C, 30 mins preincubation, bound
[11] = HRV3C, 30 mins preincubation, bound, read-out: HRV IC50
[12] = HRV3C, 30 mins preincubation, class symbols, read-out: HRV IC50

| SMILES | EC50 [1] [µM] | IC50 ([2]; HRV3C, printed bound without unit, read-out: HRV IC50) [µM] | CC50 at 6 days [3] [µM] | EC50 [4] [µM] | CC50 ([5]; numeric bounds) [µM] | CC50 [6] [µM] | IC50 [7] [µM] | IC50 [8] [µM] | EC50 ([9]; numeric bounds) [µM] | IC50 [2, 10] [µM] | EC50 ([9]; class symbols) [µM] | IC50 [2, 11] [µM] | CC50 ([5]; class symbols) [µM] | IC50 [2, 12] [µM] |
| --- | --- | --- | --- | --- | --- | --- | --- | --- | --- | --- | --- | --- | --- | --- |
| COc1cccc2[nH]c(C(=O)N3C[C@@H]4CCC[C@@H]4[C@H]3C(=O)N[C@@H](C[C@@H]3CCNC3=O)C(=O)c3ncc[nH]3)cc12 [Compound 54, (1S,3aR,6aS)—N-[(2S)-1-(1H-imidazol-2-yl)-1-oxo-3-[(3S)-2-oxopyrrolidin-3-yl]propan-2-yl]-2-(4-methoxy-1H-indole-2-carbonyl)-hexahydro-1H-cyclopenta[c]pyrrole-1-carboxamide] | 10 to 100 | > 10 | > 10 | > 100 | > 100 | > 100 | 2 to 20 | ≥ 10 | > 100 | – | – | – | – | – |
| COc1cccc2[nH]c(C(=O)N3C[C@H]4[C@@H]([C@H]3C(=O)N[C@@H](C[C@@H]3CCNC3=O)C(=O)CO)C4(C)C)cc12 [Compound 43] | 0.1 to 1 | – | > 10 | 1 to 10 | > 100 | > 100 | 0.02 to 0.2 | ≥ 10 | – | > 10 | 1 to 10 | – | – | – |
| O=C1NCC[C@H]1C[C@H](NC(=O)[C@@H]1[C@H]2CCC[C@H]2CN1C(=O)c1cc2c(Cl)ccc(C(F)(F)F)c2[nH]1)C(=O)CO [Compound 117, (1S,3aR,6aS)-2-[4-chloro-7-(trifluoromethyl)-1H-indole-2-carbonyl]-N-[(2S)-4-hydroxy-3-oxo-1-[(3S)-2-oxopyrrolidin-3-yl]butan-2-yl]-hexahydro-1H-cyclopenta[c]pyrrole-1-carboxamide] | 0.1 to 1 | – | > 10 | < 1 | > 50 | > 50 | 0.02 to 0.2 | ≥ 10 | – | – | < 1 | > 10 | – | – |
| O=C1NCC[C@H]1C[C@H](NC(=O)[C@@H]1[C@H]2CCC[C@H]2CN1C(=O)c1cc2c3c(ccc2[nH]1)CCO3)C(=O)CO [Compound 108, (1S,3aR,6aS)-2-{2H,3H,6H-furo[2,3-e]indole-7-carbonyl}-N-[(2S)-4-hydroxy-3-oxo-1-[(3S)-2-oxopyrrolidin-3-yl]butan-2-yl]-hexahydro-1H-cyclopenta[c]pyrrole-1-carboxamide] | 0.1 to 1 | – | > 10 | 1 to 10 | > 50 | > 50 | 0.02 to 0.2 | ≥ 10 | – | – | 10 to 100 | > 10 | – | – |
| CC(C)(C)C(=O)OCC(=O)[C@H](C[C@@H]1CCNC1=O)NC(=O)[C@@H]1[C@H]2CCC[C@H]2CN1C(=O)c1cc2c(Cl)cc(Cl)cc2[nH]1 [Compound 132, (3S)-3-{[(1S,3aR,6aS)-2-(4,6-dichloro-1H-indole-2-carbonyl)-hexahydro-1H-cyclopenta[c]pyrrol-1-yl]formamido}-2-oxo-4-[(3S)-2-oxopyrrolidin-3-yl]butyl 2,2-dimethylpropanoate] | < 0.1 | – | 1 to 10 | < 1 | – | > 10 | 0.2 to 2 | ≥ 10 | – | – | < 1 | > 10 | > 10 | – |
| CNc1cccc2[nH]c(C(=O)N3C[C@@H]4CCC[C@@H]4[C@H]3C(=O)N[C@@H](C[C@@H]3CCNC3=O)C(=O)CO)cc12 [Compound 153, (1S,3aR,6aS)—N-[(2S)-4-hydroxy-3-oxo-1-[(3S)-2-oxopyrrolidin-3-yl]butan-2-yl]-2-[4-(methylamino)-1H-indole-2-carbonyl]-hexahydro-1H-cyclopenta[c]pyrrole-1-carboxamide] | 1 to 10 | – | > 10 | 10 to 100 | > 50 | > 10 | 0.02 to 0.2 | ≥ 10 | – | – | 10 to 100 | > 10 | – | – |
| COc1cccc2[nH]c(C(=O)N3C[C@@H]4CCCC[C@@H]4[C@H]3C(=O)N[C@@H](C[C@@H]3CCCNC3=O)C(=O)COCc3ccccc3)cc12 (single isomer, unassigned) [Compound 59A_1] | 0.1 to 1 | – | > 10 | < 1 | – | > 10 | 0.02 to 0.2 | ≥ 10 | – | – | < 1 | – | > 10 | 2 to 20 |
| CC1(C)CCN(C(=O)c2cc3ccccc3[nH]2)[C@H](C(=O)NC(C[C@@H]2CCNC2=O)C(=O)C(=O)NCc2ccccc2)C1 (stereo partly drawn) [Compound 26, (2S)—N-(4-(benzylamino)-3,4-dioxo-1-((S)-2-oxopyrrolidin-3-yl)butan-2-yl)-1-(1H-indole-2-carbonyl)-4,4-dimethylpiperidine-2-carboxamide] | 0.1 to 1 | – | > 10 | 10 to 100 | > 100 | > 100 | 0.02 to 0.2 | < 0.1 | – | – | 10 to 100 | – | – | 2 to 20 |
| COc1cccc2[nH]c(C(=O)N3C[C@@H]4CCC[C@@H]4[C@H]3C(=O)N[C@H](CN3CCCC3=O)C(=O)C(=O)NC3CC3)cc12 (single isomer, unassigned) [Compound 113B] | 1 to 10 | – | > 10 | 10 to 100 | > 50 | > 50 | 2 to 20 | ≥ 10 | > 50 | – | – | – | – | 2 to 20 |
| O=C(c1ccccc1)c1c[nH]c(C(=O)N2C[C@@H]3CCC[C@@H]3[C@H]2C(=O)N[C@@H](C[C@@H]2CCNC2=O)C(=O)CO)c1 [Compound 84, (1S,3aR,6aS)-2-(4-benzoyl-1H-pyrrole-2-carbonyl)-N-[(2S)-4-hydroxy-3-oxo-1-[(3S)-2-oxopyrrolidin-3-yl]butan-2-yl]-hexahydro-1H-cyclopenta[c]pyrrole-1-carboxamide] | 1 to 10 | – | > 10 | 1 to 10 | > 50 | > 50 | 0.02 to 0.2 | ≥ 10 | > 50 | – | – | – | – | 2 to 20 |
| CCOC(=O)c1cc(C(=O)N2C[C@@H]3CCC[C@@H]3[C@H]2C(=O)N[C@@H](C[C@@H]2CCNC2=O)C(=O)CO)[nH]c1C [Compound 85, ethyl 5-[(1S,3aR,6aS)-1-{[(2S)-4-hydroxy-3-oxo-1-[(3S)-2-oxopyrrolidin-3-yl]butan-2-yl]carbamoyl}-hexahydro-1H-cyclopenta[c]pyrrole-2-carbonyl]-2-methyl-1H-pyrrole-3-carboxylate] | 1 to 10 | – | > 10 | 1 to 10 | > 50 | > 50 | 0.02 to 0.2 | ≥ 10 | – | – | 10 to 100 | – | – | 2 to 20 |
| O=C1NCC[C@H]1C[C@H](NC(=O)[C@@H]1[C@H]2CCC[C@H]2CN1C(=O)c1cc2c(Cl)ccc(-c3ccccc3)c2[nH]1)C(=O)CO [Compound 168, (1S,3aR,6aS)-2-(4-chloro-7-phenyl-1H-indole-2-carbonyl)-N-[(2S)-4-hydroxy-3-oxo-1-[(3S)-2-oxopyrrolidin-3-yl]butan-2-yl]-hexahydro-1H-cyclopenta[c]pyrrole-1-carboxamide] | 1 to 10 | – | > 10 | 1 to 10 | > 50 | > 10 | 0.2 to 2 | ≥ 10 | – | – | 1 to 10 | > 10 | – | – |
| COc1nccc2[nH]c(C(=O)N3C[C@@H]4CCC[C@@H]4[C@H]3C(=O)N[C@@H](C[C@@H]3CCNC3=O)C(=O)CO)cc12 [Compound 93, (1S,3aR,6aS)—N-[(2S)-4-hydroxy-3-oxo-1-[(3S)-2-oxopyrrolidin-3-yl]butan-2-yl]-2-{4-methoxy-1H-pyrrolo[3,2-c]pyridine-2-carbonyl}-hexahydro-1H-cyclopenta[c]pyrrole-1-carboxamide] | 1 to 10 | – | > 10 | 10 to 100 | > 50 | > 100 | < 0.02 | ≥ 10 | – | > 10 | 10 to 100 | – | – | – |
